Experimental data from patent US20160159861A1, “APJ Receptor Compounds” (priority 2013, published 2016).
Read-outs that look alike come from different tables or passages of the source. Peptide text beside a SMILES is read from it.

Legend:
rat peritoneal cells = assay: Ex vivo histamine release assay in rat peritoneal cells (vs. Compound 48/80); format: cell-based
Excerpt: More desirable pharmacological tolerability can include a decrease in an undesirable side effect (e.g., histamine release, an indicator of mast cell degranulation) without a significant loss in activity of the compound.
Screening of the variant G protein receptor compounds against a control compound for histamine release can be done following standard assays. The standard assay can include comparison to a control compound known to elicit a histamine response (e.g., 48/80 having CAS No. 94724-12-6). Such an assay using rat peritoneal cells is described herein for the APJ compounds.
Test compounds were assayed in the ex vivo histamine release assay using a 3-point dose response. Concentrations of total histamine contained in the cells is used to correct for variability in the numbers of mast cells in the lavage per well.
Resident peritoneal cells were harvested from naïve Sprague Dawley rats (male 200-300 gr, Charles River). Rats were euthanized by CO2 asphyxiation and a skin incision was made along the middle-line of the abdomen. Thirty milliliters of HBSS (HyClone, cat#SH 30268.01) containing 20 mM HEPES and 0.2% BSA (heretofore Assay Buffer) were injected intraperitoneally using a 30 mL syringe with the attached 18 gauge needle. The abdomen was gently lavaged for 1-2 min and 7-10 milliliters of the peritoneal lavage were carefully aspirated. Cell count in the peritoneal lavage was determined using Cellometer Auto T4 (Nexcelom Bioscience). The peritoneal cell count was adjusted to […] cells/mL in Assay Buffer. Rat peritoneal cells were kept at room temperature before and during the assay.
For the 10-point assay, 3-fold serial dilutions were prepared for each test compound in 100% DMSO in 96-well plates (Greiner Bio One, Ref#651261)—from 100 μM down to […]. For the 3-point assay, 10-fold serial dilutions were prepared in 100% DMSO at 100 μM, 10 μM and 1 μM concentrations. From this plate, 5 μL of compound were transferred to a new plate containing 45 μL Assay Buffer to generate a compound plate with 10× final concentrations in 10% DMSO with Assay Buffer. In the final plates, column 11 contained 1% DMSO for the low-histamine-releasing control.
Suspensions of the rat peritoneal cells (90 μL of 2.75×10^5 cells/mL; →25,000 cells per well) were introduced into each well of a new 96-well microtiter plate (Greiner Bio One, Ref#651261) and 10 μL aliquots of the serially diluted compounds were transferred to the cells in each well. The microtiter plate was incubated for 30 min at room temperature. Following incubation cells were spun down (500 rpm, 7 min) and supernatants were collected for further analysis. Supernatants were diluted 6 times with the assay buffer (15 μL to 75 μL, for 90 μL total) and released histamine content was determined using HTRF® Histamine assay kit (CisBio, cat#62HTMPEB). To measure the total histamine in each well, cells were lysed by addition of 15 μL 5% TritonX-100 to each well followed by incubation for 15 minutes. The plates were then spun at 3000 rpm for 5 minutes, and 10 μL of supernatant were diluted 9-fold in assay buffer (10 μL to 80 μL for 90 μL total) to make the “total” histamine plate. Histamine content was measured as described above for the “released” histamine values.
The standard positive control was Compound 48/80 (Enzo Life Sciences), a oligomeric polymer mixture produced by the condensation of N-methyl-p-methoxyphenethylamine with formaldehyde. The trimer is the most abundant in the mixture Compound 48/80 is used to promote mast cell degranulation and activates G proteins by a mechanism analogous to that of mastoparan. […] See references: T. Higashijima et al., J. Biol., Chem., 265 14176 (1990); M. Mousli et al., FEBS Lett., 259 260 (1990); K. Gietzen et al., Biochim. Biophys. Acta, 736 109 (1983); K. Gietzen, Biochem. J., 1983 216 611 and C. Bronner et al., Biochim. Biophys. Acta, 920 301(1987).

[1] = molecular target: T1, human APJ receptor (hAPJ) (Homo sapiens, UniProt P35414); assay: HTRF cAMP assay: inhibition of NKH477-stimulated cAMP in HEK cells stably expressing hAPJ; format: cell-based; details: for Emax: HEK293, read-out: % IA, bound stated; for % IA (cAMP inhibition, hAPJ HEK): intrinsic activity; for Ranking: composite class of EC50 (hAPJ), % IA and % histamine or formal (+) charge; for inhibition of NKH477-stimulated increase in cAMP, dose dependent: concentration response curves, FIGS. 1 and 2, HEK cells stably expressing APJ
T1 construct: expressed in transfected cells
T1 sequence (P35414 1-380): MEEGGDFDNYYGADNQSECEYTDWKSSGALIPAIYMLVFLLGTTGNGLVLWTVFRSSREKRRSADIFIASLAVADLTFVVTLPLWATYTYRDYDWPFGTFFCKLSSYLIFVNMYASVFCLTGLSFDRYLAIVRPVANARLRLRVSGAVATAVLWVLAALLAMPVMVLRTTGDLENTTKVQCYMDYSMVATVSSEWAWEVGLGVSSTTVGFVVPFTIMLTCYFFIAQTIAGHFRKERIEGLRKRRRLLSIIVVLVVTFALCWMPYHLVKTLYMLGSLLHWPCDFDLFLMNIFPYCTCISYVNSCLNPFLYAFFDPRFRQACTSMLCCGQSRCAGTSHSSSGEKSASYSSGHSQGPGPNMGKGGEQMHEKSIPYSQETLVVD
Outline: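 HEK cells stably expressing hAPJ, induced with 1 nG/mL doxycycline and seeded overnight at 40 k/well. cAMP read by HTRF competitive immunoassay using cryptate-labeled anti-cAMP antibody and d2-labeled cAMP.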

[2] = HTRF cAMP Assay, per data of Table 6
[3] = HTRF cAMP Assay, per data of Table 6, read-out: EC50 (hAPJ), inhibition of cAMP production, bound stated
[4] = Table 6, hAPJ HEK cells, NKH477-stimulated cAMP, read-out: EC50 (cAMP inhibition, hAPJ HEK)

Compound	Histamine (% vs. 48/80) (rat peritoneal cells) [%]	Emax [1, 2] [%]	EC50 [1, 3] [nM]	EC50 [1, 4] [nM]	% IA (cAMP inhibition, hAPJ HEK) ([1]; Table 6, hAPJ HEK cells) [%]	Ranking [1]	inhibition of NKH477-stimulated increase in cAMP, dose dependent [1]
CCCCCCCCCCCCCCCC(=O)N[C@H](C(=O)N[C@H](C(=O)N[C@@H](Cc1ccccc1)C(=O)N[C@@H](CCC(N)=O)C(=O)N[C@@H](CO)C(=O)N[C@@H](CO)C(=O)N[C@@H](CCC(=O)O)C(=O)N[C@H](CCCCN)C(=O)N[C@@H](CCCNC(=N)N)C(=O)N[C@@H](CCCNC(=N)N)C(=O)N[C@@H](CO)C(=O)N[C@@H](C)C(=O)N[C@@H](CC(=O)O)C(=O)N[C@@H](Cc1ccccc1)C(=O)N[C@H](C(N)=O)[C@@H](C)CC)C(C)C)[C@@H](C)O [Compound 15, Pal-TVFQSSEkRRSADFI-amide] (HELM PEPTIDE1{[CCCCCCCCCCCCCCCC(=O)[*:2]].T.V.F.Q.S.S.E.[dK].R.R.S.A.D.F.I.[am]}$$$$V2.0)	30	≥ 80	≤ 25	12	108	***** (EC50≦25 nM (hAPJ), % IA≧80% and either % histamine≦35% or formal (+) charge≦1)	inhibited
CCCCCCCCCCCCCCCC(=O)N[C@H](C(=O)N[C@H](C(=O)N[C@@H](Cc1ccccc1)C(=O)N[C@@H](CCC(N)=O)C(=O)N[C@@H](CO)C(=O)N[C@@H](CCC(=O)O)C(=O)N[C@H](CCCCN)C(=O)N[C@@H](CCCNC(=N)N)C(=O)N[C@@H](CCCNC(=N)N)C(=O)N[C@@H](CO)C(=O)N[C@@H](C)C(=O)N[C@@H](CC(=O)O)C(=O)N[C@@H](Cc1ccccc1)C(=O)N[C@H](C(N)=O)[C@@H](C)CC)C(C)C)[C@@H](C)O [Compound 16, TVFQSEkRRSADFI] (HELM PEPTIDE1{[CCCCCCCCCCCCCCCC(=O)[*:2]].T.V.F.Q.S.E.[dK].R.R.S.A.D.F.I.[am]}$$$$V2.0)	21	50 to 79	25 to 50	10	78	*** (EC50 25-50 nM (hAPJ), % IA 50-79% and either % histamine≦35% or formal (+) charge≦1)	
CCCCCCCCCCCCCCCC(=O)N[C@@H](CC(=O)O)C(=O)N[C@H](C(=O)N[C@@H](Cc1ccccc1)C(=O)N[C@@H](CCC(N)=O)C(=O)N[C@@H](CO)C(=O)N[C@@H](CCC(=O)O)C(=O)N[C@H](CCCCN)C(=O)N[C@@H](CCCNC(=N)N)C(=O)N[C@@H](CCCNC(=N)N)C(=O)N[C@@H](CO)C(=O)N[C@@H](C)C(=O)N[C@@H](CC(=O)O)C(=O)N[C@@H](CCC(N)=O)C(=O)N[C@@H](Cc1ccccc1)C(=O)N[C@H](C(N)=O)[C@@H](C)CC)C(C)C [Compound 17] (HELM PEPTIDE1{[CCCCCCCCCCCCCCCC(=O)[*:2]].D.V.F.Q.S.E.[dK].R.R.S.A.D.Q.F.I.[am]}$$$$V2.0)	1	≥ 80	≤ 25	24	111	***** (EC50≦25 nM (hAPJ), % IA≧80% and either % histamine≦35% or formal (+) charge≦1)	inhibited
CCCCCCCCCCCCCCCC(=O)N[C@H](C(=O)N[C@H](C(=O)N[C@@H](Cc1ccccc1)C(=O)N[C@@H](CCCNC(=N)N)C(=O)N[C@@H](CO)C(=O)N1CCC[C@H]1C(=O)N[C@@H](CO)C(=O)N[C@@H](CCC(=O)O)C(=O)N[C@H](CCCCN)C(=O)N[C@@H](CCCNC(=N)N)C(=O)N[C@@H](CCCNC(=N)N)C(=O)N1CCC[C@H]1C(=O)N[C@@H](CO)C(=O)N[C@@H](C)C(=O)N[C@@H](CC(=O)O)C(=O)N[C@H](C(=O)N[C@@H](Cc1ccccc1)C(N)=O)[C@@H](C)CC)C(C)C)[C@@H](C)O [Compound 22] (HELM PEPTIDE1{[CCCCCCCCCCCCCCCC(=O)[*:2]].T.V.F.R.S.P.S.E.[dK].R.R.P.S.A.D.I.F.[am]}$$$$V2.0)	60			17	47	* (EC50≦50 nM (hAPJ), % IA<50%)	
CCCCCCCCCCCCCCCC(=O)N[C@H](C(=O)N[C@H](C(=O)N[C@@H](Cc1ccccc1)C(=O)N[C@@H](CCCNC(=N)N)C(=O)N[C@@H](CO)C(=O)N[C@@H](CO)C(=O)N1CCC[C@H]1C(=O)N[C@@H](CCC(=O)O)C(=O)N[C@H](CCCCN)C(=O)N[C@@H](CCCNC(=N)N)C(=O)N[C@@H](CCCNC(=N)N)C(=O)N[C@@H](CO)C(=O)N1CCC[C@H]1C(=O)N[C@@H](C)C(=O)N[C@@H](CC(=O)O)C(=O)N[C@H](C(=O)N[C@@H](Cc1ccccc1)C(N)=O)[C@@H](C)CC)C(C)C)[C@@H](C)O [Compound 23] (HELM PEPTIDE1{[CCCCCCCCCCCCCCCC(=O)[*:2]].T.V.F.R.S.S.P.E.[dK].R.R.S.P.A.D.I.F.[am]}$$$$V2.0)	67			44	63	** (EC50 25-50 nM (hAPJ), % IA 50-79% and either % histamine>35% or formal (+) charge>1)	
CCCCCCCCCCCCCCCC(=O)N[C@H](C(=O)N[C@H](C(=O)N[C@@H](Cc1ccccc1)C(=O)N[C@@H](CCCNC(=N)N)C(=O)N[C@@H](CO)C(=O)N[C@@H](CO)C(=O)N[C@@H](CCC(=O)O)C(=O)N[C@H](CCCCN)C(=O)N[C@@H](CCCNC(=N)N)C(=O)N[C@@H](CCCNC(=N)N)C(=O)N1CCC[C@H]1C(=O)N[C@@H](CO)C(=O)N[C@@H](C)C(=O)N[C@@H](CC(=O)O)C(=O)N[C@H](C(=O)N[C@@H](Cc1ccccc1)C(=O)N1CCC[C@H]1C(N)=O)[C@@H](C)CC)C(C)C)[C@@H](C)O [Compound 24] (HELM PEPTIDE1{[CCCCCCCCCCCCCCCC(=O)[*:2]].T.V.F.R.S.S.E.[dK].R.R.P.S.A.D.I.F.P.[am]}$$$$V2.0)	54	≥ 80	≤ 25	13	88	**** (EC50≦25 nM (hAPJ), % IA≧80% and either % histamine>35% or formal (+) charge>1)	inhibited
